Key:
Experiment in all cases: SignalChem radioisotope protein kinase assay
Type in all cases: biochemical
Conditions in all cases: 5 μl of 100 μM stock solution in 25 μl
p70S6K = p70S6K (Homo sapiens, UniProt P23443)
Text: (§1) The various protein kinase targets to be employed in the kinase profiling assay were cloned, expressed and purified in-house at SignalChem (Richmond, BC, Canada) using proprietary methods. Quality control testing is routinely performed on each of the SignalChem targets to ensure compliance to acceptable standards. Protein substrates employed in the target profiling process were synthesized internally. ^33P-ATP was purchased from PerkinElmer. All other materials were of standard grade. Compound 10 (FIG. 4) was supplied to SignalChem in a powder form. It was reconstituted in DMSO to form a stock solution which was then diluted with 10% DMSO to form a working stock solution (100 μM) that was then profiled against the various protein kinase targets. The assay conditions for the various protein kinase targets were optimized to yield acceptable enzymatic activity. In addition, the assays were optimized to give high signal-to-noise ratio.
(§2) SignalChem uses a radioisotope assay format for profiling evaluation of protein kinase targets. Protein kinase assays were performed in triplicate at ambient temperature for 20-40 min (depending on the target) in a final volume of 25 μl according to the following assay reaction recipe: • Component 1: 5 μl of diluted active protein kinase target (˜10-40 nM final protein concentration in the assay) • Component 2: 5 μl of stock solution of substrate (1-5 μg of peptide or protein substrate) • Component 3: 5 μl of kinase assay buffer or protein kinase activator in kinase assay buffer • Component 4: 5 μl of Compound 10 (100 μM stock solution) or 10% DMSO • Component 5: 5 μl of 33P-ATP (25 μM stock solution, 0.8 μCi)
(§3) The assay was initiated by the addition of ^33P-ATP and the reaction mixture incubated at ambient temperature for 20-40 minutes, depending on the protein kinase target. After the incubation period, the assay was terminated by spotting 10 μl of the reaction mixture onto a Millipore Multiscreen plate. The Millipore Multiscreen plate was washed 3 times for approximately 15 minutes each in a 1% phosphoric acid solution. The radioactivity on the P81 plate was counted in the presence of scintillation fluid in a Trilux scintillation counter. Blank control, which included all the assay components except the addition of the appropriate substrate (replaced with equal volume of assay dilution buffer), was set up for each protein kinase target. The corrected activity for each protein kinase target was determined by removing the blank control value.

LYN B = LYN B (Homo sapiens, UniProt P07948)
Text: as §1, §2, §3

PAK2 = PAK2 (Homo sapiens, UniProt Q13177)
Text: as §1, §2, §3

ERK2 = ERK2 (Homo sapiens, UniProt P28482)
Text: as §1, §2, §3

LCK = LCK (Homo sapiens, UniProt P06239)
Text: as §1, §2, §3

FGR = FGR (Homo sapiens, UniProt P09769)
Text: as §1, §2, §3

RSK1 = molecular target: T1, RSK1 (Homo sapiens, UniProt Q15418)
T1 construct: purchased SignalChem
Text: as §1, §2, §3

FRK = FRK (Homo sapiens, UniProt P42685)
Text: as §1, §2, §3

PDGFRβ = PDGFRβ (Homo sapiens, UniProt P09619)
Text: as §1, §2, §3

AURORA A = AURORA A (Homo sapiens, UniProt O14965)
Text: as §1, §2, §3

AKT3 = AKT3 (Homo sapiens, UniProt Q9Y243)
Text: as §1, §2, §3

FMS = FMS (Homo sapiens, UniProt P07333)
Text: as §1, §2, §3

P38γ = P38γ (Homo sapiens, UniProt P53778)
Text: as §1, §2, §3

p38δ = p38δ (Homo sapiens, UniProt O15264)
Text: as §1, §2, §3

ALK4 = ALK4 (Homo sapiens, UniProt P36896)
Text: as §1, §2, §3

NEK6 = NEK6 (Homo sapiens, UniProt Q9HC98)
Text: as §1, §2, §3

PAK7 = PAK7 (Homo sapiens, UniProt Q9P286)
Text: as §1, §2, §3

SGK1 = molecular target: T2, SGK1 (Homo sapiens, UniProt O00141)
T2 construct: purchased SignalChem
Text: as §1, §2, §3

PAK3 = PAK3 (Homo sapiens, UniProt O75914)
Text: as §1, §2, §3

MST4 = MST4 (Homo sapiens, UniProt Q9P289)
Text: as §1, §2, §3

PDGFRα = PDGFRα (Homo sapiens, UniProt P16234)
Text: as §1, §2, §3

HCK = HCK (Homo sapiens, UniProt P08631)
Text: as §1, §2, §3

ABL2 = ABL2 (Homo sapiens, UniProt P42684)
Text: as §1, §2, §3

MARK1 = MARK1 (Homo sapiens, UniProt Q9P0L2)
Text: as §1, §2, §3

HER2 = HER2 (Homo sapiens, UniProt P04626)
Text: as §1, §2, §3

ERK1 = ERK1 (Homo sapiens, UniProt P27361)
Text: as §1, §2, §3

MARK3 = MARK3 (Homo sapiens, UniProt P27448)
Text: as §1, §2, §3

TRKA = molecular target: T3, TRKA (Homo sapiens, UniProt P04629)
T3 construct: purchased SignalChem
Text: as §1, §2, §3

PAK4 = PAK4 (Homo sapiens, UniProt O96013)
Text: as §1, §2, §3

Sequence of AKT3 (Q9Y243 whole entry, species assumed): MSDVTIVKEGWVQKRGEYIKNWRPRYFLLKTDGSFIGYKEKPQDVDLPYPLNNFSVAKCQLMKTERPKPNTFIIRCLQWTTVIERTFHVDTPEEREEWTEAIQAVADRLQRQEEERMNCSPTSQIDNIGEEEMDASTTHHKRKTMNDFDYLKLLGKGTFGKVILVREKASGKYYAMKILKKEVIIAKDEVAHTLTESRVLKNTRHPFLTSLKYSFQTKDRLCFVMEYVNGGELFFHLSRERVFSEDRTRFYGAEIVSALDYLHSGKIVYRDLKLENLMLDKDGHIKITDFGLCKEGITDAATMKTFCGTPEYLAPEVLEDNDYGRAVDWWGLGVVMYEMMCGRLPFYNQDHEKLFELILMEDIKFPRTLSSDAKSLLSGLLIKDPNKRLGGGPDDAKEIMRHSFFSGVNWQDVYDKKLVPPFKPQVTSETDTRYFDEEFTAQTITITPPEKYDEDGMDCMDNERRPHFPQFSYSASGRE
T2 sequence (O00141 whole entry, species assumed): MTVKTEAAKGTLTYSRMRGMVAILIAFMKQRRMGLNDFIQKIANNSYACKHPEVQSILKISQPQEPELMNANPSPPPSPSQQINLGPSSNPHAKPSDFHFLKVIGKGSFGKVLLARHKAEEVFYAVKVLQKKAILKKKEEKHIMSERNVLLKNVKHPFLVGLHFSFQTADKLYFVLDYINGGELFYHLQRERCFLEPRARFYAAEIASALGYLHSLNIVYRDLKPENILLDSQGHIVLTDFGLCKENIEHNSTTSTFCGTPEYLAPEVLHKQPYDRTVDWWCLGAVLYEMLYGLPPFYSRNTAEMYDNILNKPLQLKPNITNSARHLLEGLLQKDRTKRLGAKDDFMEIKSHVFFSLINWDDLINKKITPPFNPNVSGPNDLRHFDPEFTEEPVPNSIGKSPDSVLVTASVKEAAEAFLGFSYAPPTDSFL
Sequence of MARK3 (P27448 whole entry, species assumed): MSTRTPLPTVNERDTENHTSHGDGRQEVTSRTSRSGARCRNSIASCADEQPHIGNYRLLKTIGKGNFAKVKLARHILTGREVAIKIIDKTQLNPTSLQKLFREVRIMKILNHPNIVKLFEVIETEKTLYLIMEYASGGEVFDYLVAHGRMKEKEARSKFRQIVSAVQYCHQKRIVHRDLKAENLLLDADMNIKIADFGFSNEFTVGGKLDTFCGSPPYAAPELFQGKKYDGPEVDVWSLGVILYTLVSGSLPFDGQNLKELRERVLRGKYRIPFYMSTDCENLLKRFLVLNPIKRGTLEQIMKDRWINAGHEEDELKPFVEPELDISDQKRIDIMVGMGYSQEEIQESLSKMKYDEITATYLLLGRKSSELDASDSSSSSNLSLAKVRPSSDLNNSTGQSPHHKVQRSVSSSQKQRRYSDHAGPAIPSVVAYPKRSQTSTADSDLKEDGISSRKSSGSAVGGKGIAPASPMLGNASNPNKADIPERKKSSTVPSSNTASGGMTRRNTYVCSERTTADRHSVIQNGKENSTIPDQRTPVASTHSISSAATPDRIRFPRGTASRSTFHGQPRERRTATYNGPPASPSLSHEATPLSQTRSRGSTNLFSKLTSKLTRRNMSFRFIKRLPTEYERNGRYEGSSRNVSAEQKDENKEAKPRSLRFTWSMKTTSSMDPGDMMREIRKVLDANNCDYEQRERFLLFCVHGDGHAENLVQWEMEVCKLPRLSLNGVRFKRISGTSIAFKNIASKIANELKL
Sequence of ERK1 (P27361 whole entry, species assumed): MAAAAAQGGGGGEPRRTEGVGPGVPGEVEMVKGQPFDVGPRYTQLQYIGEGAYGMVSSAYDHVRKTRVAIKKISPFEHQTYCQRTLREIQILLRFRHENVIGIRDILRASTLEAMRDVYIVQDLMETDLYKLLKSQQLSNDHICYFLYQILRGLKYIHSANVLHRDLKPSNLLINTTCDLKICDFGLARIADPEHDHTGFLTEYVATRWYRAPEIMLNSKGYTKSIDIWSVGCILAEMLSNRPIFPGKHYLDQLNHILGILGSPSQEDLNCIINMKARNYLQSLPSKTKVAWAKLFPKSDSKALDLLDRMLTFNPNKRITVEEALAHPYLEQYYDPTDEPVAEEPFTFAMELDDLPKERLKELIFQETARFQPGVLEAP
Sequence of LCK (P06239 whole entry, species assumed): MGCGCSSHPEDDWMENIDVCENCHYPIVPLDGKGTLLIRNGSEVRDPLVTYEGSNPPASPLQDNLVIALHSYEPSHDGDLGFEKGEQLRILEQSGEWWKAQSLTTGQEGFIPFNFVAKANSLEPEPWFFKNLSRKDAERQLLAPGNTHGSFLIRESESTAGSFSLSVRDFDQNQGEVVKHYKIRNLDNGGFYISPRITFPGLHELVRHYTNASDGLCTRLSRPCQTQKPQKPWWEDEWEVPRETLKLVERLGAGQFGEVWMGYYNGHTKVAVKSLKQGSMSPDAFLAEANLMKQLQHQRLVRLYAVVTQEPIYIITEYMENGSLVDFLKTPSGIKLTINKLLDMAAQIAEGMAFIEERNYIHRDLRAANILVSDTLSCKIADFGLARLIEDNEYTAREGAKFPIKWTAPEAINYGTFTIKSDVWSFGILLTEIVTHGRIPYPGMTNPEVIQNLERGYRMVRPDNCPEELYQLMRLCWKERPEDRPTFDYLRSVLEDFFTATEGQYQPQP
Sequence of NEK6 (Q9HC98 whole entry, species assumed): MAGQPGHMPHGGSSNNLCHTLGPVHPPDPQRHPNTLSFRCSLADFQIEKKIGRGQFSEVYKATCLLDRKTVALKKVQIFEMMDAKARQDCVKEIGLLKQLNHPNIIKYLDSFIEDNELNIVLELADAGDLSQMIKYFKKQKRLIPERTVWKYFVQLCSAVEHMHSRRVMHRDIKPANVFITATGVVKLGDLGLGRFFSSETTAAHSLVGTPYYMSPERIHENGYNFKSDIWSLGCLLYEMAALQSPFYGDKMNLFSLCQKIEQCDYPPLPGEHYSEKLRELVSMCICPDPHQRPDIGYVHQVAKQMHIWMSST
Sequence of P38γ (P53778 whole entry): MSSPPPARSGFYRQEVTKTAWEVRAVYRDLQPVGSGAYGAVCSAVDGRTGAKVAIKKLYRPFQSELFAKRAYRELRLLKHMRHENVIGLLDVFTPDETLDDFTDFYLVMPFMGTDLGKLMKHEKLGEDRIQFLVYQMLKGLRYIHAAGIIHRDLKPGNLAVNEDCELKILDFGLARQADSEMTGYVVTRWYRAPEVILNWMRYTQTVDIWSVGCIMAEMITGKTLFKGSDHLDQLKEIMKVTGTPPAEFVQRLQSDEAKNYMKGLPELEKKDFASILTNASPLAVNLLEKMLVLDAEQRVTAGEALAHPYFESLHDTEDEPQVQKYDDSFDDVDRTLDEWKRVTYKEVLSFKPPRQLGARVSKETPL
Sequence of ERK2 (P28482 whole entry, species assumed): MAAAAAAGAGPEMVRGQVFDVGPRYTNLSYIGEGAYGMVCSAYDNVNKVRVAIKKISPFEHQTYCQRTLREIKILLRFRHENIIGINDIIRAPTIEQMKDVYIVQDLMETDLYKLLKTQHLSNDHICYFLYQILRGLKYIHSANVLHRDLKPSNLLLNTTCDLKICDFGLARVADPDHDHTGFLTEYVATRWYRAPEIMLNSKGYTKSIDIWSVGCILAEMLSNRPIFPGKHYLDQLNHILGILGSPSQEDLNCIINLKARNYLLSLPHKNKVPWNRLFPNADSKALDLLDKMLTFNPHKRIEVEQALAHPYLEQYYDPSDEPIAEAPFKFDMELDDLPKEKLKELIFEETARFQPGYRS
Sequence of FMS (P07333 20-972, species assumed): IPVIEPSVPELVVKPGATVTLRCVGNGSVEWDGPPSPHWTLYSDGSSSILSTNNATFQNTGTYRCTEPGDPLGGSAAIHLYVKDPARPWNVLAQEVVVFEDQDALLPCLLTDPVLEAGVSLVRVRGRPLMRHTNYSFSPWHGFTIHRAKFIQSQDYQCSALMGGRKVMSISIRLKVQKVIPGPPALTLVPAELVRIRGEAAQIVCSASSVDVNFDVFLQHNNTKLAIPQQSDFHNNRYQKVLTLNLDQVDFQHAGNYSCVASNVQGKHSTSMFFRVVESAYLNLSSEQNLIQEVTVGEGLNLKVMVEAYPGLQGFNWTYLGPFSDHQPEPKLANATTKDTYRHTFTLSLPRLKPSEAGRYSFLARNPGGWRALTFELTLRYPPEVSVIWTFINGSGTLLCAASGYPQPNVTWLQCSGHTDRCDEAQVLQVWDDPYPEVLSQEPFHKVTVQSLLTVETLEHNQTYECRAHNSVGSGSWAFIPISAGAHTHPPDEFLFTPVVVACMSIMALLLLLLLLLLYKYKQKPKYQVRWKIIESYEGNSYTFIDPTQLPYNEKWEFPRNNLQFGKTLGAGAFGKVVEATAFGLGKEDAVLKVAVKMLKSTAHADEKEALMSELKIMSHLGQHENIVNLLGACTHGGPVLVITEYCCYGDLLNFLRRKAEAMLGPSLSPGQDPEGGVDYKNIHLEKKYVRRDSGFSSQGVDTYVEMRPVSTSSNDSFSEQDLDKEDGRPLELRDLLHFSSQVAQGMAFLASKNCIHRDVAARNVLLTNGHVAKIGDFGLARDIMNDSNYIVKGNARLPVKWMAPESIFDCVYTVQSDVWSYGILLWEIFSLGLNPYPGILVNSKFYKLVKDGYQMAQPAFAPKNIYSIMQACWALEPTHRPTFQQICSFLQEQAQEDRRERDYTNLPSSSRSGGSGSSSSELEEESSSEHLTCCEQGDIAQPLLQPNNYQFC
Sequence of AURORA A (O14965 whole entry): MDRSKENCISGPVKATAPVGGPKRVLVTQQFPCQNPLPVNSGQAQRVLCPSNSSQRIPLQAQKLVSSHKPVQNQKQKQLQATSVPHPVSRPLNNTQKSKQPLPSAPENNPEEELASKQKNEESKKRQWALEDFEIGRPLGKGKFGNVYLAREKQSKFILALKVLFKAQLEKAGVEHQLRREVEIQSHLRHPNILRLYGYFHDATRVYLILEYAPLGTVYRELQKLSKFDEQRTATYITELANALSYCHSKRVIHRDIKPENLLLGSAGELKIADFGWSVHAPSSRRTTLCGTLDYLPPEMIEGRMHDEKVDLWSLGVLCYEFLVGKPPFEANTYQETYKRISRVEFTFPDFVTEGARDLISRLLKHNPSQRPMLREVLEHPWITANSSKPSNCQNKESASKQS

In the case of CCOC(=O)C[C@@H]1C(O[Si](C)(C)C(C)(C)C)[C@H](n2cnc3c(NC(=O)Nc4ccccc4)ncnc32)O[C@@H]1CNC(=O)NC (some centres unmarked) [Compound 10], the “% Activity Change” value (p70S6K) is reported as −1%, the “% Activity Change” value (LYN B) is reported as 12% and the “% Activity Change” value (PAK2) is reported as 16%. For the same molecule, the “% Activity Change” value (ERK2) was −4%, the “% Activity Change” value (LCK) was 30% and the “% Activity Change” value (FGR) was 3%. For the same molecule, the “% Activity Change” value (RSK1) was 4%, the “% Activity Change” value (FRK) was 24% and the “% Activity Change” value (PDGFRβ) was −7%. The “% Activity Change” value (AURORA A) was 1%, the “% Activity Change” value (AKT3) was 52% and the “% Activity Change” value (FMS) was −17%. The “% Activity Change” value (P38γ) was 14%, the “% Activity Change” value (p38δ) was 5% and the “% Activity Change” value (ALK4) was 2%. For the same molecule, the “% Activity Change” value (NEK6) was 28%, the “% Activity Change” value (PAK7) was 21% and the “% Activity Change” value (SGK1) was 36%. For the same molecule, the “% Activity Change” value (PAK3) was 524%, the “% Activity Change” value (MST4) was 47% and the “% Activity Change” value (PDGFRα) was −2%. The “% Activity Change” value (HCK) was 18%, the “% Activity Change” value (ABL2) was 8% and the “% Activity Change” value (MARK1) was 5%. The “% Activity Change” value (HER2) was 4%, the “% Activity Change” value (ERK1) was 6% and the “% Activity Change” value (MARK3) was −1%. For the same molecule, the “% Activity Change” value (TRKA) was −6% and the “% Activity Change” value (PAK4) was −20%.

From patent publication US20100152434A1, “Protein Kinase-binding Nucleosides and Associated Methods” (priority 2007, published 2010)
